Data: patent US20230398130A1, “METHODS AND COMPOSITIONS FOR DIFFERENTIATING STEM CELLS” (Massachusetts Institute of Technology, priority 2020, published 2023)

Tests used:
ISC-enriched organoids [1] = test: Primary screen, 384-well 2.5-D organoid differentiation (ENR+CD, 6 days, Target Selective Inhibitor Library, vs whole-plate median): ATP (CellTiter-Glo 3D, CTG); conditions: for Dose.FC.CTG: FC vs plate median; for Z.CTG: standard z score of FC; for Dose.FC.CTG (log 2 fold change, ATP): vs plate median
ISC-enriched organoids [2] = test: Primary screen, 384-well 2.5-D organoid differentiation (ENR+CD, 6 days): basal lysozyme secretion (LYZ.NS); type: cell-based, murine; conditions: for Dose.FC.LYZ.NS: FC vs plate median; for Z.LYZ.NS: standard z score of FC; for Dose.FC.LYZ.NS (log 2 fold change, basal lysozyme secretion): vs plate median
From the text: (§1) High-throughput screening.

ISC-enriched organoids [3] = test: Primary screen, 384-well 2.5-D organoid differentiation (ENR+CD, 6 days): carbachol-induced lysozyme secretion (LYZ.S); type: cell-based, murine; conditions: for Dose.FC.LYZ.S: FC vs plate median; for Dose.FC.LYZ.S (log 2 fold change, carbachol-induced lysozyme secretion): vs plate median
From the text: as §1

| Molecule | Dose.FC.CTG (ISC-enriched organoids [1]; Dose 0.08 uM, ENR+CD, 6 days) [log 2 fold change] | Z.CTG (ISC-enriched organoids [1]; Dose 0.08 uM) | Dose.FC.CTG (ISC-enriched organoids [1]; Dose 0.40 uM, ENR+CD, 6 days) [log 2 fold change] | Z.CTG (ISC-enriched organoids [1]; Dose 0.40 uM) | Dose.FC.CTG (ISC-enriched organoids [1]; Dose 2.00 uM, ENR+CD, 6 days) [log 2 fold change] | Z.CTG (ISC-enriched organoids [1]; Dose 2.00 uM) | Dose.FC.CTG (ISC-enriched organoids [1]; Dose 10.00 uM, ENR+CD, 6 days) [log 2 fold change] | Z.CTG (ISC-enriched organoids [1]; Dose 10.00 uM) | Dose.FC.LYZ.NS (ISC-enriched organoids [2]; Dose 0.08 uM, ENR+CD, 6 days) [log 2 fold change] | Z.LYZ.NS (ISC-enriched organoids [2]; Dose 0.08 uM) | Dose.FC.LYZ.NS (ISC-enriched organoids [2]; Dose 0.40 uM, ENR+CD, 6 days) [log 2 fold change] | Z.LYZ.NS (ISC-enriched organoids [2]; Dose 0.40 uM) | Dose.FC.LYZ.NS (ISC-enriched organoids [2]; Dose 2.00 uM, ENR+CD, 6 days) [log 2 fold change] | Z.LYZ.NS (ISC-enriched organoids [2]; Dose 2.00 uM) | Dose.FC.LYZ.NS (ISC-enriched organoids [2]; Dose 10.00 uM, ENR+CD, 6 days) [log 2 fold change] | Z.LYZ.NS (ISC-enriched organoids [2]; Dose 10.00 uM) | Dose.FC.LYZ.S (ISC-enriched organoids [3]; Dose 0.08 uM, ENR+CD, 6 days) [log 2 fold change] | Dose.FC.LYZ.S (ISC-enriched organoids [3]; Dose 0.40 uM, ENR+CD, 6 days) [log 2 fold change] | Dose.FC.LYZ.S (ISC-enriched organoids [3]; Dose 2.00 uM, ENR+CD, 6 days) [log 2 fold change] | Dose.FC.LYZ.S (ISC-enriched organoids [3]; Dose 10.00 uM, ENR+CD, 6 days) [log 2 fold change] | also measured |
| --- | --- | --- | --- | --- | --- | --- | --- | --- | --- | --- | --- | --- | --- | --- | --- | --- | --- | --- | --- | --- | --- |
| c1ccc(CNc2nc(NCc3ccccc3)c3ccccc3n2)cc1 [DBeQ] | 0.119 | 0.285 | −0.013 | −0.031 | 0.004 | 0.010 | −1.133 | −2.706 | 0.097 | 0.844 | 0.064 | 0.558 | −0.048 | −0.414 | −0.296 | −2.577 | 0.045 | 0.210 | −0.103 | −0.423 | – |
| NC(=O)C1CCCc2c1[nH]c1ccc(Cl)cc21 (centres unmarked) [EX 527 (Selisistat)] | 0.240 | 0.574 | 0.174 | 0.415 | 0.341 | 0.814 | 0.320 | 0.766 | 0.100 | 0.871 | 0.059 | 0.512 | 0.030 | 0.261 | 0.057 | 0.494 | 0.062 | 0.047 | −0.051 | −0.011 | – |
| OG-L002 | – | 0.225 | – | 0.329 | – | 0.306 | – | 0.225 | – | −0.001 | – | −0.097 | – | 0.182 | – | −0.790 | – | – | – | – | Dose.FC.CTG (ISC-enriched organoids [1]; Dose 0.08 uM, primary screen): 0.094 log 2 fold change; Dose.FC.CTG (ISC-enriched organoids [1]; Dose 0.40 uM, primary screen): 0.138 log 2 fold change; Dose.FC.CTG (ISC-enriched organoids [1]; Dose 2.00 uM, primary screen): 0.128 log 2 fold change; Dose.FC.CTG (ISC-enriched organoids [1]; Dose 10.00 uM, primary screen): 0.094 log 2 fold change; Dose.FC.LYZ.NS (ISC-enriched organoids [2]; Dose 0.08 uM, primary screen): 0.000 log 2 fold change; Dose.FC.LYZ.NS (ISC-enriched organoids [2]; Dose 0.40 uM, primary screen): −0.011 log 2 fold change; Dose.FC.LYZ.NS (ISC-enriched organoids [2]; Dose 2.00 uM, primary screen): 0.021 log 2 fold change; Dose.FC.LYZ.NS (ISC-enriched organoids [2]; Dose 10.00 uM, primary screen): −0.091 log 2 fold change; Dose.FC.LYZ.S (ISC-enriched organoids [3]; Dose 0.08 uM, primary screen): 0.023 log 2 fold change; Dose.FC.LYZ.S (ISC-enriched organoids [3]; Dose 0.40 uM, primary screen): 0.026 log 2 fold change; Dose.FC.LYZ.S (ISC-enriched organoids [3]; Dose 2.00 uM, primary screen): −0.001 log 2 fold change; Dose.FC.LYZ.S (ISC-enriched organoids [3]; Dose 10.00 uM, primary screen): −0.084 log 2 fold change |
| VU 0364439 | – | – | – | – | – | – | – | – | – | – | – | – | – | – | – | – | – | – | – | – | Z.CTG (standard z score) (ISC-enriched organoids [1]; dose 0.08 uM): 0.058; Dose.FC.CTG (log 2 fold change, ATP) (ISC-enriched organoids [1]; dose 0.08 uM): 0.024; Z.CTG (standard z score) (ISC-enriched organoids [1]; dose 0.40 uM): −0.289; Dose.FC.CTG (log 2 fold change, ATP) (ISC-enriched organoids [1]; dose 0.40 uM): −0.121; Z.CTG (standard z score) (ISC-enriched organoids [1]; dose 2.00 uM): −0.616; Dose.FC.CTG (log 2 fold change, ATP) (ISC-enriched organoids [1]; dose 2.00 uM): −0.258; Z.CTG (standard z score) (ISC-enriched organoids [1]; dose 10.00 uM): 0.022; Dose.FC.CTG (log 2 fold change, ATP) (ISC-enriched organoids [1]; dose 10.00 uM): 0.009; Z.LYZ.NS (standard z score) (ISC-enriched organoids [2]; dose 0.08 uM): 0.715; Dose.FC.LYZ.NS (log 2 fold change, basal lysozyme secretion) (ISC-enriched organoids [2]; dose 0.08 uM): 0.082; Z.LYZ.NS (standard z score) (ISC-enriched organoids [2]; dose 0.40 uM): 0.099; Dose.FC.LYZ.NS (log 2 fold change, basal lysozyme secretion) (ISC-enriched organoids [2]; dose 0.40 uM): 0.011; Z.LYZ.NS (standard z score) (ISC-enriched organoids [2]; dose 2.00 uM): 0.089; Dose.FC.LYZ.NS (log 2 fold change, basal lysozyme secretion) (ISC-enriched organoids [2]; dose 2.00 uM): 0.010; Z.LYZ.NS (standard z score) (ISC-enriched organoids [2]; dose 10.00 uM): −0.476; Dose.FC.LYZ.NS (log 2 fold change, basal lysozyme secretion) (ISC-enriched organoids [2]; dose 10.00 uM): −0.055; Dose.FC.LYZ.S (log 2 fold change, carbachol-induced lysozyme secretion) (ISC-enriched organoids [3]; dose 0.08 uM): 0.108; Dose.FC.LYZ.S (log 2 fold change, carbachol-induced lysozyme secretion) (ISC-enriched organoids [3]; dose 0.40 uM): 0.124; Dose.FC.LYZ.S (log 2 fold change, carbachol-induced lysozyme secretion) (ISC-enriched organoids [3]; dose 2.00 uM): −0.043; Dose.FC.LYZ.S (log 2 fold change, carbachol-induced lysozyme secretion) (ISC-enriched organoids [3]; dose 10.00 uM): −0.038 |
